Consider 3 molecules from patent US12320800B2, “High-throughput automation of organoids for identifying therapeutic strategies” (UNIVERSITY OF WASHINGTON, priority 2018, dated 2025).

Structures are written as SMILES. ≈ marks a conversion by molar mass, not a printed value.

For data set [1], the system named is PKD1−/− and PKD2−/− mutant organoids. Description: Prophylactic effect of myosin activators on cyst formation in PKD organoids in suspension. The format is cell-based, human. The source says:
Cyst formation. In adherent cultures (untreated), ‘cysts’ were identified as large, balloon-like, translucent structures that swayed in response to agitation. Flat rings and dilated tubules were not counted as cysts and occasionally appeared even in non-PKD controls. […] Wells were imaged using a Nikon TiE inverted wide-field microscope and cysts were quantified using ImageJ cell counter. To generate large cysts in suspension, adherent organoids were microdissected with a 23-gauge syringe needle from 24-well plates on an inverted phase-contrast microscope, and carefully transferred using a transfer pipette into a low-adhesion 6-well plate (Corning) containing 2 ml RB. The organoids were isolated on the twenty-first day of differentiation, before cysts formed. RB media was changed by gravity every three days, and cystogenesis was assessed at two weeks after replating.
EMD was efficient at rescuing cyst formation at the lowest dose tested (3 μM) and worked in both PKD1^−/− and PKD2^−/− mutant organoids.

A further data set deals with cell stiffness. The settings on record: cited from earlier work.
A further data set has as its system myosin. Conditions: cited from earlier work; for effect: Table 5 listing.
Data set [2] concerns PKD organoids (mutations in polycystin-1). The data set can be described thus: Small-scale screen of PKD cystogenesis modifiers in 96-well organoid plates. The format is cell-based, human. The arrangement: dose or concentration left out as unconfirmed. The settings on record: 7 days, blebbistatin at highest concentration. On the procedure: (§1) Cyst generation. PKD1^−/− and PKD2^−/− hPSCs or isogenic controls were differentiated in microwell plates in adherent cultures. Forskolin (Sigma) was added to microwell plates during automated liquid handling on the 21st day after differentiation. Large swellings rapidly developed and grew to full size over 72 hours. Cysts were identified by comparing images with captured with high-content imaging prior to forskolin treatment, and after 72 hours. Screening of PKD cystogenesis was performed in duplicate in 96-well plates to provide sufficient space and numbers of organoids per well. Factors were plated at four different concentrations for seven days, and the organoids were scanned visually on a phase-contrast microscope for increased or decreased cyst formation. […] Cyst diameters were measured using NIS Elements imaging software (Nikon). […]

Data set [3] has as its system PKD organoids. Description: Blebbistatin cystogenesis in suspension culture, PKD organoids. The format is cell-based, human. The arrangement: time after which PKD organoids formed cysts: dose or concentration left out as unconfirmed. Here is the method: Cyst generation. […] Forskolin (Sigma) was added to microwell plates during automated liquid handling on the 21st day after differentiation. Large swellings rapidly developed and grew to full size over 72 hours. Cysts were identified by comparing images with captured with high-content imaging prior to forskolin treatment, and after 72 hours. Screening of PKD cystogenesis was performed in duplicate in 96-well plates to provide sufficient space and numbers of organoids per well. Factors were plated at four different concentrations for seven days, and the organoids were scanned visually on a phase-contrast microscope for increased or decreased cyst formation. […] To test cystogenesis in suspension, adherent organoids were microdissected with a 23-gauge syringe needle from 24-well plates on an inverted phase-contrast microscope, and transferred into a low-adhesion 6-well plate (Corning) containing 2 mL RB or 2 mL RB with […] blebbistatin. Organoids were imaged daily on a Nikon Ti Inverted Widefield microscope for a period of 7 days. Cyst diameters were measured using NIS Elements imaging software (Nikon). Contiguous microscopic fields were collected using an automated stage and stitched together using NIS Elements software to generate large images of wells or plates.

For data set [4], the system named is control organoids of identical genetic background that lacked PKD mutations. The data set can be described thus: Blebbistatin cystogenesis in suspension culture, control organoids. The format is cell-based, human. The settings on record: 3 days after treatment. Here is the method: as §1, with “PKD1^−/− and PKD2^−/− hPSCs or isogenic controls were differentiated in microwell plates in adherent cultures.” left out

The next data set has as its system late-stage PKD organoids. Description: Regression of pre-existing cysts in late-stage PKD organoids. The format is cell-based, human. The settings on record: one week. An excerpt: Reduction of pre-existing cysts would be a major advantage over tolvaptan. In an acute setting, EMD could be used to reduce pain from swollen cysts, and in a chronic setting it could potentially reverse the course of disease.

The test system of data set [5] is PKD organoids. Description: Live-dead viability analysis of PKD organoids after EMD treatment. The format is cell-based, human. Conditions: 10 μM for two weeks. On the procedure: To assess potential toxicity in human organoids, morphology was examined by phase-contrast microscopy during the treatment time course and performed a live-dead analysis of organoids at the endpoint of treatment (10 μM EMD for two weeks).

The next data set relates to PKD1RC/RC mouse. The data set can be described thus: EMD pilot trial in PKD1RC/RC mouse. The format is in vivo. Conditions: for survival, distress and adverse effects: 5 mg/kg. Here is the method: Efficacy In Vivo: To reproduce EMD's effects in an animal model, small pilot trial was performed in the PKD1RC/RC mouse. Animals at five months of age, a time point where cysts have already formed, were injected intraperitoneally with EMD four times over 2.5 weeks (FIG. 24A). EMD was dissolved in 400 μL PBS solution at 5 mg/kg (˜25 μM in mouse blood).
These animals were sacrificed and analyzed their kidney tissue.

The target in another data set is myosin motor domain. Conditions: allosteric pocket of the myosin motor domain; cited from earlier work.
A further data set has as its target β-cardiac myosin (Homo sapiens, UniProt P12883). The settings on record: read-out: AC50, actomyosin ATPase activity; cited from earlier work.
The test system of the next data set is skeletal muscle myosin. The settings on record: read-out: AC50, actomyosin ATPase activity; cited from earlier work.
A further data set has as its system non-cardiac myosin II. Conditions: cited from earlier work.
The conditions of data set [6]: canines, orally administered, optimized for dissolution; cited from earlier work.
The test system of another data set is liver cells. Conditions: in vitro; cited from earlier work.
For data set [7] the following is noted: cited from earlier work.
The mark [8] stands for this setting: expected value, WT control or EMD, Aim 1.
Setting [9] is: 5 mg/kg intraperitoneally, four times over 2.5 weeks.
Where [10] appears, read: high dose (5 mg/kg) applied repeatedly.

Sequence of β-cardiac myosin (P12883 whole entry): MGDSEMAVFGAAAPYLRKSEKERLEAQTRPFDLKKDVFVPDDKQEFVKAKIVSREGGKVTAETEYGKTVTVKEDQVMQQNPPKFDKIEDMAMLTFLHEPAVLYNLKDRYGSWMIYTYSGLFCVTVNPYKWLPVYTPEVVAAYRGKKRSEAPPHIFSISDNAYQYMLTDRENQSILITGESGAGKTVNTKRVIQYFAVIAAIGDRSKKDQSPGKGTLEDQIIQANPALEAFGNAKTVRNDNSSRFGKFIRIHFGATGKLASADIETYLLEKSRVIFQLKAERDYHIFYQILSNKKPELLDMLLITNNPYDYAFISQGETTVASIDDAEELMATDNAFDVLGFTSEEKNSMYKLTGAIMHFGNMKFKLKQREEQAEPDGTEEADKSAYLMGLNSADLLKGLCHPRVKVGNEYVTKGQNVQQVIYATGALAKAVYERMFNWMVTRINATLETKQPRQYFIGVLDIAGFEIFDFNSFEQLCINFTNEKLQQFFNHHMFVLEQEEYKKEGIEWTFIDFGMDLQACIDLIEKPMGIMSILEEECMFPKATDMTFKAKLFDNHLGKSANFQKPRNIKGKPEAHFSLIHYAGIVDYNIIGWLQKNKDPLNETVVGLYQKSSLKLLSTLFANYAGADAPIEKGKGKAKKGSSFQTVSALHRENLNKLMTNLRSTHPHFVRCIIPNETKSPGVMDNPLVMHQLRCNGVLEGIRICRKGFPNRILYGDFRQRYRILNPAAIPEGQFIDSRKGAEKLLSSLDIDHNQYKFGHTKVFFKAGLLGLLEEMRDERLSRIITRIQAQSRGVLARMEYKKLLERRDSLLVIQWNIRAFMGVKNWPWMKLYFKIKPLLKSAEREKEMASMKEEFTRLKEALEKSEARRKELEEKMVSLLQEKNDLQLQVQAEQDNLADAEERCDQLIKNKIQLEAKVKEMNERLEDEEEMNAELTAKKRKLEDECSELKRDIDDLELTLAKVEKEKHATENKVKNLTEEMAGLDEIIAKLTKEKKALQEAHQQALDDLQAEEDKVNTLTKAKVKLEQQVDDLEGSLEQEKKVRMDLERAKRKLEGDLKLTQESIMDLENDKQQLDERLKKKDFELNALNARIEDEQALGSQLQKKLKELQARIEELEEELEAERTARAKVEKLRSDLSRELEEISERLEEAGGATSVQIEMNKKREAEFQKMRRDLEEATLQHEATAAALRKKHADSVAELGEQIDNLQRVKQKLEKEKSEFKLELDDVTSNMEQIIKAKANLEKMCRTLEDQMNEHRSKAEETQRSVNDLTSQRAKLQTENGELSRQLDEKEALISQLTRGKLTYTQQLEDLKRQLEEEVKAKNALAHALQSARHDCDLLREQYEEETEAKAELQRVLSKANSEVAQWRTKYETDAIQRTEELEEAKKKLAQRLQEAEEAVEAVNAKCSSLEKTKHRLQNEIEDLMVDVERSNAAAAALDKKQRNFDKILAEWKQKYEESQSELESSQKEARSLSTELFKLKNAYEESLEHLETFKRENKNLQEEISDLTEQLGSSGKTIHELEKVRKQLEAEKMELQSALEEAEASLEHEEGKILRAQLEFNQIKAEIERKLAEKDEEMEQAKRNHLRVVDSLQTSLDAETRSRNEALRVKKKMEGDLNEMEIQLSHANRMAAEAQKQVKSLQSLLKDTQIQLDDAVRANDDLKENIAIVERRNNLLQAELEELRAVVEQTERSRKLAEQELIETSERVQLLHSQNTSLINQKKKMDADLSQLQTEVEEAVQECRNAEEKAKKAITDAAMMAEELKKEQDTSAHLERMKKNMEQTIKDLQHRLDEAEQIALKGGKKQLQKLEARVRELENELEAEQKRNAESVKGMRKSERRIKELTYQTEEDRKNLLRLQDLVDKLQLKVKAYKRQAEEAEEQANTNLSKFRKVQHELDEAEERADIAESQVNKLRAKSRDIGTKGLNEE
Sequence of β-cardiac myosin (P08590 whole entry partner): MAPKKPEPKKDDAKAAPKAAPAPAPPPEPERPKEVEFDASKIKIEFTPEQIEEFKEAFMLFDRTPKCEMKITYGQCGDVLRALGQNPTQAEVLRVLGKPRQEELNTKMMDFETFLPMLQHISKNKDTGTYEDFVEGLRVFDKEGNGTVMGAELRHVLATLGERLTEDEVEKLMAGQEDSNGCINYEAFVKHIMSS

In the case of `CC(=O)c1ccc(O)cc1` [4-HAP, 4-hydroxyacetophenone], the “effect on PKD organoid cysts” value in data set [1] is “less activity than EMD”. The “effect on cyst growth in PKD1−/− organoids” value in data set [1] (300 μM (FIG. 22)) is on record as “Positive effects”. Also, in the data set on cell stiffness, the “concentration range showing effects on cell stiffness” value is 5 to 50 µM. Also, in the data set with myosin, the effect entry is “↑ myosin IIB, IIC”; the “myosin II paralogs affected” value was “specifically affect non-muscle myosins IIB and IIC, but not IIA”.
Consider `Cc1ccc2c(c1)C(=O)C1(O)CCN(c3ccccc3)C1=N2` (centres unmarked) [blebbistatin], for which, in data set [2], the “change in cyst formation” value is recorded as “significant increase in cyst formation”. Moreover, the “diameter and number of cysts” value with PKD organoids [3] (7 days of treatment, suspension) was “Both the diameter and number of cysts were increased”. Also, the “increase in rate of cystogenesis” value worked out at 40% in the data set with PKD organoids [3] (PKD organoids, suspension, 3 days after treatment) and 10% in data set [4]. Further, the damage to organoids result in the data set with PKD organoids [3] (at this concentration and time frame) is given as “no damage to organoids was observed”. Moreover, the “time after which PKD organoids formed cysts” value in the data set with PKD organoids [3] (suspension culture, blebbistatin) worked out at 24 h. Also, the “cyst size after removal of blebbistatin” value in the data set on PKD organoids [3] (washout after 7 days of treatment) is “cyst size declined”.
Consider `COc1ccc(C(=O)N2CCCc3cc(C4=NNC(=O)SC4C)ccc32)cc1OC` (single isomer, unassigned; (+)) [EMD, (+)-5-(1-(3,4-Dimethoxybenzoyl)-1,2,3,4-tetrahydroquinolin-6-yl)-6-methyl-3,6-dihydro-2H-1,3,4-thiadiazin-2-one], for which the “lowest dose tested, efficient at rescuing cyst formation” value in [1] (PKD1−/− and PKD2−/− mutant organoids) was 3 µM. Also, in data set [1] (setting [8]), the “Cyst diameter (mm)” value was 0.12 ± 0.04 mm and the “Cystic organoids (%)” value is 15 ± 6%. Further, the “formation and size of resultant cysts” value in data set [1] (pre-cystic organoids in suspension, versus untreated controls) was “effectively reduced the formation and size of the resultant cysts”. Also, the “efficacy on cysts in the presence of blebbistatin” value in [1] (with blebbistatin) is listed as “effective even in the presence of blebbistatin”. Also, the “size of pre-formed cysts” value with late-stage PKD organoids (late-stage PKD organoids (day 37), 5 μM) is “acute reduction in the size of pre-formed cysts”. The “toxicity at these doses” value in the data set on late-stage PKD organoids (late-stage PKD organoids) is recorded as “No overt toxicity”. The “toxicity (phase-contrast morphology and live-dead analysis)” value with PKD organoids [5] is “no significant toxicity”. Besides, in the data set on PKD1RC/RC mouse (setting [9]), the “blood urea nitrogen levels (BUN)” value is “reduced” and the kidney weight entry is “reduced”. In addition, the “superficial (renal cortical) cysts by gross morphology” value in the data set on PKD1RC/RC mouse (5 mg/kg intraperitoneally, four times over 2.5 weeks, five months of age) is given as “noticeably reduced superficial (renal cortical) cysts”. Moreover, in the data set with PKD1RC/RC mouse (setting [8]), the “BUN” value is given as 20 ± 5 mg/dL and the “kidney weight” value came out at 0.30 ± 0.1 g. Further, the “alpha-SMA+ area (%)” value with PKD1RC/RC mouse (expected value, WT control or EMD, Aim 2) is reported as 25 ± 4%. Besides, in the data set with PKD1RC/RC mouse (setting [10]), the “fibrosis in the kidneys” value is “No fibrosis was observed”; the “survival, distress and adverse effects” value was “no adverse effects or mortality”. The “survival, distress and adverse effects” value in the data set with PKD1RC/RC mouse (mouse, in vivo) is “all animals survived, and none showed any signs of distress”. Moreover, in the data set on PKD1RC/RC mouse (treated kidneys), the “acute tubular necrosis, proximal tubules (LTL+)” value is “no evidence of acute tubular necrosis”; the “cyst size in kidney sections” value is given as “smaller cysts”; the “expression of smooth muscle alpha-actin” value is “reduced expression”. The Kd on myosin motor domain was 7.3 µM. At β-cardiac myosin, the AC50 was 7 µM. The AC50 in the data set on skeletal muscle myosin was 15.1 µM. Besides, the “increase of non-cardiac myosin II activity” value in the data set with non-cardiac myosin II is on record as “three-fold”. Moreover, the effect result in the data set with myosin was “↑ myosin”. For the same molecule, in [6], the Tmax is approximately 2.5 h and the “average Cmax” value is approximately 40 ng/mL. Also, the “metabolism by liver cells” value in the data set on liver cells is listed as “metabolized by liver cells into demethylated and/or hydroxylated forms by CYP-dependent mechanisms”. Moreover, in data set [7], the aqueous solubility is 5 µg/mL (≈ 11.8 µM).

Broadly, the Kd is the free concentration of one partner at which half of the binding sites on the other are occupied at equilibrium, for simple one-to-one binding. As a reminder, the AC50 is the midpoint of the concentration-response curve, whichever way the signal moves. For orientation: Tmax means the time from dosing to the highest level. In general, aqueous solubility refers to the concentration that dissolves in the medium under given conditions.
